Measurements from patent US11851631B2, “Household product delivering cooling sensations” (TAKASAGO INTERNATIONAL CORPORATION, priority 2016, dated 2023).

Columns and labels:
human TRPM8 = target: T1, human TRPM8 (Homo sapiens, UniProt Q7Z2W7); test: TRPM8 activation, Fluo-8 calcium fluorescence (FLIPR) in HEK-293 cells; format: cell-based; settings: HEK-293 cells stably transfected with human TRPM8; for EC50: normalised to WS3 EC100
T1 construct: expressed in transfected cells; host or cells: HEK-293
T1 sequence (Q7Z2W7 whole entry): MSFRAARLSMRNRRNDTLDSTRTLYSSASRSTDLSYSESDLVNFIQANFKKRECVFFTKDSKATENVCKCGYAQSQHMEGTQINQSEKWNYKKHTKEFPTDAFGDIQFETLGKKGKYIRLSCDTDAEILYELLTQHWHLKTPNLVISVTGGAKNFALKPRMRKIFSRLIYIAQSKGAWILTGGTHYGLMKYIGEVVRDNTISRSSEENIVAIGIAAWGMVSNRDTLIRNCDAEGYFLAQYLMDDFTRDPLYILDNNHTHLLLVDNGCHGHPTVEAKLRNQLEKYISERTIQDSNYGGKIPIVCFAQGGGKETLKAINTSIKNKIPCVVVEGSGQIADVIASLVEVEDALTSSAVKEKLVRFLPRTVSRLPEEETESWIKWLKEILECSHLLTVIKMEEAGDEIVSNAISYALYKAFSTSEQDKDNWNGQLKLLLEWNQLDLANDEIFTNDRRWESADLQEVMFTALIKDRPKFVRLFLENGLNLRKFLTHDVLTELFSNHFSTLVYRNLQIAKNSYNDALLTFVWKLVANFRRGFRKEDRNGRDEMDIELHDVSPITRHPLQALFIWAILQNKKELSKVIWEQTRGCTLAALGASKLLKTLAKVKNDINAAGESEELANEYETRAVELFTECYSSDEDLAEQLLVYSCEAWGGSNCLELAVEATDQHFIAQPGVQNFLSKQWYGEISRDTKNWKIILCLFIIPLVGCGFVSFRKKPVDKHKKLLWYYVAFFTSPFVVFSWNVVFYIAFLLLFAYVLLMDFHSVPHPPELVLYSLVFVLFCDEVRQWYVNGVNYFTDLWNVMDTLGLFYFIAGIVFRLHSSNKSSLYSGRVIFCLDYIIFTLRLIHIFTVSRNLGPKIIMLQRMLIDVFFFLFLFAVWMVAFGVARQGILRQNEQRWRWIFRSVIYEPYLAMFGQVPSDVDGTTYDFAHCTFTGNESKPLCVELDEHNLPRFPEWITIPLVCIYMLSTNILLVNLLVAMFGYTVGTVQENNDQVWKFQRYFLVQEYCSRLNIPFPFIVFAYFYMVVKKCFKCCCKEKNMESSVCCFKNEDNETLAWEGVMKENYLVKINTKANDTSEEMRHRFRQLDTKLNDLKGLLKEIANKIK
Protocol: HEK-293 (Human Embryonic Kidney) cells stably transfected with human TRPM8 were grown in a culture medium of EMEM (minimum Essential Medium Eagle) with Earl's salts balanced salt solution (Lonza catalogue No BE12-125F), 5 mL of 200 mM Ultraglutamine 1 (Lonza Catalogue No BE17-605E/U1), 5 mL of 100× Penicillin/Streptomycin (Lonza Catalogue No DE17-602E) 50 mL of Fetal bovine serum (Euroclone Cat No ECS0180L) 2 mL of 100 mg/mL Genticin sulphate (G418 sulphate InvivoGen CatAnt-gn-5).
10,000 cells/well were seeded in a 384 MTP in complete medium. Then after 24 h the culture medium was manually removed. The cells were loaded with 20 μL/well of 0.5× Fluo-8 NW dye in standard Tyrode's buffer (Screen Quest™ Fluo-8 No wash Calcium assay kit supplied by AAT Bioquest catalogue No 26316) The plate was incubated for 1 h at room temperature in the dark. 10 μL/well of test compounds and controls were injected with the FLIPR^TETRA (Molecular Devices) and the emitted fluorescence signal was recorded at 520 nm for 3 min. The compound multiwall plate contained the samples at 8 different doses in quadruplicate data points. The dose response of the samples were performed starting from 100 mM concentration in 100% DMSO with a serial dilution of 1:2 and then diluted in assay buffer at the final concentration of 100 μM, 50 μM, 25 μM, 12.5 μM, 6 μM, 3 μM, 1.5 μM, and 0.7 μM.
In the compound plate was also present a dose response of the reference agonist N ethyl-p-menthane-3-carboxamide (WS3) at 8 concentrations and in duplicate. This reference control dosed as 16 wells (duplicates for each concentration) of reference agonist at EC100 correspond to the MAX signal response (100% activity). There were also 16 wells of blanks i.e. assay buffer without either a test sample or reference agonist which correspond to the MIN signal response (0% activity). MAX and MIN controls are used for data analysis (RZ′ calculation) and normalization of compound activity.
For data analysis the response value is calculated as the maximum signal of the kinetic trace after the injection minus the median of the points before injection and multiplied by the normalization factor (NF). The normalisation factor is the baseline mean of all wells in the plate divided by the baseline of a specific well. […]
The EC50 of the test samples was then calculated using a curve fitting program available within the data analysis software.

panel of 84 subjects = test: Comparison of sensations between isopulegol and menthoxypropanediol (cool sensation in the nose); format: in vivo, human; settings: 3% in triethyl citrate, isopulegol compared to menthoxypropanediol, ANOVA p<0.05
Protocol: A panel of 84 subjects was selected to take part in a comparative test between isopulegol (available as Coolact (registered trademark) P) and menthoxypropanediol (CAS 87061-04-9, available as Coolact (registered trademark) 10), both known for their cooling effect on skin.
The samples of isopulegol and menthoxypropanediol were prepared by dilution to 3% in Triethyl Citrate (TEC).
Panelists also had to score whether they perceived a cool sensation in the nose, on a scale of +100 (very cool) to −100 (very hot) with 0 (neutral) on the middle of the scale.

Compound	TRPM8 activation (in words) (human TRPM8)	EC50 (human TRPM8)	cooling perception in the nose (in words) (panel of 84 subjects)
CC(C)[C@@H]1CC[C@@H](C)C[C@H]1OCC(O)CO (some centres unmarked) [Menthoxypropanediol, menthoxypropanediol]	activate TRPM8	7.7 µM	
C=C(C)[C@@H]1CC[C@@H](C)C[C@H]1O (racemic) [Isopulegol, isopulegol]	activate TRPM8		improved cooling perception
CCNC(=O)C1CC(C)CCC1C(C)C (centres unmarked) [WS3, N ethyl-p-menthane-3-carboxamide]		6 µM	
